Measurements reported in patent EP3919042A1, “COMPOSITION WITH SILANOL, ETHANOL AND WATER FOR GLOBAL DI[…]” (Sil'Innov scrl, priority 2020, dated 2021).

Assay: stability of MMST in water without stabilizers
Assay type: physicochemical
Conditions: stability declines at higher concentrations
Procedure: In a preferred embodiment of a composition according to the first aspect of the invention, the composition comprises monomethylsilanetriol (MMST). Monomethylsilanetriol (MMST, MeSiOH3 or Si(OH)3CH3) is an organosilanol. […] This organosilanol is highly bioavailable. […] MMST can advantageously be used without stabilizers in silicon equivalent concentrations up to 300 mg/l. The stability of MMST is dependent on concentration and declines at higher concentrations. The stability can further be enhanced by the use of stabilizing agents. In a preferred embodiment the stabilizing agent is based on phenol or polyphenol as described above. The same reasoning applies, mutatis mutandis, with respect to stabilizing effect on the free hydroxyl groups.

C[Si](O)(O)O [MMST, monomethylsilanetriol]
silicon equivalent concentration usable without stabilizers: up to 300 mg/l
